Data reported in paper PMC9822434, “Estradiol-Based Salicylaldehyde (Thio)Semicarbazones and Their Copper Complexes with Anticancer, Antibacterial and Antioxidant Activities” (Molecules, 2022).
Each block holds one compound with its values, some of them ahead of it.

Legend:
[1] = cyclic voltammetry of Cu(II)-(T)SC (1:1) systems; type: physicochemical; conditions: 90% (v/v) DMSO/H2O, pH 7.40 (10 mM HEPES), 10 mV/s, 25 °C, I = 0.1 M (nBu4NPF6)
Protocol: Cyclic voltammograms of TSCs derivatives and their Cu(II) complexes at 25.0 ± 0.1 °C were recorded. nBu4NPF6 was used as a supporting electrolyte, and measurements were performed at pH 7.4. The complexes were obtained by mixing the ligand dissolved in DMSO with aqueous solution of CuCl2 in 1:1 ratio. The final concentration of stock was 1 mM. Measurements were performed on a conventional three-electrode system under argon atmosphere using an Autolab PGSTAT 204 potentiostat/galvanostat monitored with Metrohm’s Nova software. Samples were purged for 10 min with argon before recording the cyclic voltammograms. Platinum electrode was used as the working and auxiliary electrode and Ag/AgCl/3 M KCl as the reference electrode. The electrochemical system was calibrated with an aqueous solution of K3[Fe(CN)6] (E1/2 = +0.458 V vs. NHE). Redox potentials were obtained at 10 mV/s scan rate in the range of −1.3 to +0.8 V.

[2] = system: MCF-7 KCR; test: MTT cytotoxicity assay; type: cell-based, human
Protocol: (§1) To test the biological effects of the Cu(II) complexes and the ligands on human cancer cells, DU-145 prostate, A549 lung, and MCF-7 breast adenocarcinoma cells, as well as the multidrug-resistant MCF-7 KCR breast cancer cells were utilized. All the cell lines were maintained in RPMI-1640 media (Biosera, Nuaille, France) complemented with 10% fetal bovine serum (FBS), 2 mM L-glutamine, 0.01% streptomycin and 0.005% penicillin, (Biosera, Nuaille, France) and were cultured under standard conditions in a 37 °C incubator at 5% CO2 and 95% humidity. The cell lines were originally obtained from ATCC.
(§2) The effect of the complexes and of their ligands alone on the viability (on the metabolic activity) of human cancer cells was assessed by MTT assay. The tested compounds were dissolved in 90% (v/v) DMSO/H2O at 10 mM concentration. Equimolar solutions of the ligand CuCl2 salt were used for the cytotoxicity assays. The metal salts without ligands were also tested. For this, 1 × 10^4 cells/well were seeded into 96-well plates and left to grow overnight. On the following day, cells were exposed to increasing concentrations of each compound (0; 2.5; 5; 10; 15; 20 µM). After a 24 h incubation, cells were washed with PBS buffer and then incubated with 0.5 mg/mL MTT (Sigma-Aldrich, St Louis, Missouri, MO, USA) for 1 h at 37 °C. The formazan crystals were solubilized in DMSO (Molar Chemicals, Halásztelek, Hungary), and the absorbance of samples was determined at 570 nm using a Synergy HTX plate reader (BioTek, Winooski, Vermont, VT, USA). Absorption corresponding to the untreated control samples was considered as 100%.

[3] = system: A549; test: MTT cytotoxicity assay; type: cell-based, human; conditions: 24 h incubation time
Protocol: as §1, §2

[4] = system: MCF-7; test: MTT cytotoxicity assay; type: cell-based, human; conditions: MCF-7, MTT, 24 h incubation time
Protocol: as §1, §2

[5] = system: DU-145; test: MTT cytotoxicity assay; type: cell-based, human; conditions: DU-145, MTT, 24 h incubation time
Protocol: as §1, §2

[6] = DPPH free radical scavenging assay; conditions: for TEAC (Trolox equivalent antioxidant capacity): DPPH assay in ethanol; for TEAC (Trolox equivalent antioxidant capacity) / % Scavenging Effect: 25 °C; for % Scavenging Effect: DPPH:compound = 1:1 ratio after 30 min, ethanol; for IC50: in ethanol, T = 25 °C, cDPPH = 50 µM, ccompound = 5−50 µM
Protocol: The DPPH (Sigma-Aldrich) free radical scavenging capacity was studied at 25.0 ± 0.1 °C on an Agilent Cary 3500 spectrophotometer with tightly closed tandem cuvette according to our approach with some modifications. The stock solution of DPPH (100 µM) was prepared in ethanol, and 0.5 mL of this solution was added to one pocket of the cuvette and 0.5 mL of the tested compound in different concentrations in ethanol was added to another. The final concentration of the studied compounds was in the range 5–50 µM, where for DPPH concentration, it was always 50 µM. A standard compound Trolox (Sigma-Aldrich) was used as a positive control. The percentage of the antioxidant activity (AA), IC50 values (the concentration of compound at which it reduced 50% of DPPH) and Trolox equivalent antioxidant capacity (TEAC) were calculated.

[7] = system: E. faecalis ATCC 29212; test: MIC determination; type: cell-based, Enterococcus faecalis; conditions: Gram-positive E. faecalis ATCC 29212, Mueller Hinton Broth
Protocol: (§3) Klebsiella pneumoniae (ATCC 49619), Escherichia coli (ATCC 25922), Staphylococcus aureus (ATCC 25928) and Enterococcus faecalis (ATCC 29212) strains were used as Gram-negative and Gram-positive bacterial cultures. The stock solutions of the tested compounds (dissolved in 90% (v/v) DMSO/H2O at 10 mM concentration) were diluted in 100 μL of Mueller Hinton Broth, and then two-fold serial dilutions were performed. As a starting point, 100 μM concentration of the compounds was used. Then, 10^−4 dilution of an overnight bacterial culture in 100 μL of medium was added to each well, with the exception of the medium control wells. Minimum inhibitory concentration (MIC) values of compounds were determined according to our previous work.

[8] = system: S. aureus ATCC 25928; test: MIC determination; type: cell-based, Staphylococcus aureus; conditions: Gram-positive S. aureus ATCC 25928, Mueller Hinton Broth
Protocol: as §3

[9] = type: physicochemical; conditions: for logβ [CuLH−1] / logβ [CuL]+: Cu(II) complex of the named ligand, 30% (v/v) DMSO/H2O, T = 25.0 °C, I = 0.1 M (KCl); for pCu5.0: calculated at pH 5.0, cCu(II) = 20 µM; for pCu5.0 / pCu6.0 / pCu7.4: cligand = 20 µM; for pCu6.0: estimated at pH 6.0, cCu(II) = 20 µM; for pCu7.4: estimated at pH 7.4, cCu(II) = 20 µM
Protocol: (§4) An Orion 710A pH-meter equipped with a Metrohm combined electrode (type 6.0234.100) and a Metrohm 665 Dosimat burette were used for the UV–vis titrations at 25.0 ± 0.1 °C. Ionic strength of 0.10 M (KCl) was used to keep the activity coefficients constant. The titrations were performed with carbonate-free KOH solution of known concentration (0.10 M) with 30% (v/v) DMSO content. […] The average water ionization constant (pKw) is 14.54 ± 0.05 in the 30% (v/v) DMSO/H2O mixture. Argon was always passed over the solutions during the titrations. An Agilent Cary 8454 diode array spectrophotometer was used to record the UV–vis spectra at an interval of 200–800 nm. The path length was 2 cm. Spectrophotometric titrations were performed using a 0.1 M KOH titrant solution with 30% (v/v) DMSO on samples with 30% (v/v) DMSO containing HCl, KCl and the ligand at 20 μM concentration in the pH range 2.0–12.5 in the absence or in the presence of 1 or 0.5 equiv. Cu(II) ions. Proton dissociation constants (Ka) of the TSC ligands, the overall stability constants (β) of the Cu(II) complexes and the UV–vis spectra of the individual species were calculated by the computer program PSEQUAD [41] as was done in our previous works.

[10] = physchem; type: physicochemical
Protocol: as §4

[11] = direct redox reaction of the Cu(II) complexes with GSH (UV–vis, anaerobic); type: physicochemical; conditions: Cu(II) complex (25 µM) of the named ligand with GSH (1.25 mM), pH 7.4, anaerobic, 30% (v/v) DMSO/H2O, 25.0 °C
Protocol: The redox reaction of the Cu(II) complexes with GSH and ascorbic acid was studied at 25.0 ± 0.1 °C, at pH 7.40 (10 mM HEPES with 0.1 M KCl) on an Agilent Cary 8454 diode array spectrophotometer using a special, tightly closed tandem cuvette (Hellma Tandem Cell, 238-QS). The complex and the reducing agent were separated until the reaction was triggered. Both isolated pockets of the tandem cuvette were completely deoxygenated by bubbling argon for 10 min before mixing the reactants. Spectra were recorded before and then immediately after the mixing, and changes were followed till no further absorbance change was observed. The stock solutions of the reducing agents and the complexes were freshly prepared every day.
During the calculations, the absorbance (A)−time (t) curves were fitted and analyzed at the λmax of the complex. (A0 − Afinal) × e ^(−a×t) + Afinal equation was used where A0, Afinal and a parameters were refined and accepted at the minimal value of the weighted sum of squared residuals (difference between the measured and calculated absorbance values) at the given wavelength. Then observed rate constants (kobs) of the redox reaction were obtained from the data points of the simulated absorbance–time curves as the slope of the ln(A/A0) versus t plots.

[12] = Homo sapiens, MCF7, 24 h incubation time
[13] = Enterococcus faecalis, ATCC29212
[14] = Staphylococcus aureus, ATCC25928

Compound: CN(C)C([S-])=N/N=C/c1cc2c(cc1[O-])CC[C@@H]1[C@@H]2CC[C@]2(C)[C@@H](O)CC[C@@H]12.O.[Cu+2] [Cu(II)-Me2-estradiol-TSC]
formal potential E’ vs. Ag/AgCl/3M KCl [1]: +0.33 V | IC50 ([2]; 24 h incubation time): > 20 µM | IC50 [3]: 3.44 ± 1.02 µM | IC50 [4]: 10.1 ± 1.36 µM | IC50 [5]: 7.85 ± 1.08 µM | TEAC (Trolox equivalent antioxidant capacity) [6]: 0.7 | % Scavenging Effect [6]: 40.4% | IC50 [6]: 16.4 µM | MIC [7]: 12.5 µM | MIC [8]: 0.78 µM

Compound: CNC([S-])=N/N=C/c1cc2c(cc1[O-])CC[C@@H]1[C@@H]2CC[C@]2(C)[C@@H](O)CC[C@@H]12.O.[Cu+2] [Cu(II)-Me-estradiol-TSC]
formal potential E’ vs. Ag/AgCl/3M KCl [1]: +0.29 V | IC50 ([2]; 24 h incubation time): > 20 µM | IC50 [3]: 3.71 ± 1.02 µM | IC50 [4]: 16.7 ± 1.66 µM | IC50 [5]: 15.8 ± 1.08 µM | TEAC (Trolox equivalent antioxidant capacity) [6]: 0.6 | % Scavenging Effect [6]: 33.6% | IC50 [6]: 20.3 µM | MIC [7]: 50 µM | MIC [8]: 6.25 µM

Compound: CN(C)C(=S)NN=Cc1cc2c(cc1O)CC[C@@H]1[C@@H]2CC[C@]2(C)[C@@H](O)CC[C@@H]12 [Me2-estradiol-TSC, 2-((3,17 β-Dihydroxy-estra-1,3,5(10)-triene-2-yl)methylene)-N,N-dimethylhydrazine-1-carbothioamide]
IC50 [2, 12]: > 20 µM | IC50 ([3]; Homo sapiens): > 20 µM | IC50 ([4]; Homo sapiens, MCF7): > 20 µM | IC50 ([5]; Homo sapiens): > 20 µM | pKa [CuL]+ [9]: 3.85 | logβ [CuLH−1] [9]: 10.11 ± 0.03 | logβ [CuL]+ [9]: 13.96 ± 0.03 | pCu5.0 [9]: 8.0 | pCu6.0 [9]: 9.6 | pCu7.4 [9]: 12.4 | pKa [10]: 9.2 ± 0.03 | kobs [11]: 0.31 ± 0.06 min⁻¹ | TEAC (Trolox equivalent antioxidant capacity) [6]: 0.9 | % Scavenging Effect [6]: 100% | IC50 [6]: 13.6 µM | MIC [7, 13]: > 100 µM | MIC [8, 14]: > 100 µM

Compound: CNC(=S)NN=Cc1cc2c(cc1O)CC[C@@H]1[C@@H]2CC[C@]2(C)[C@@H](O)CC[C@@H]12 [Me-estradiol-TSC, 2-((3,17 β-Dihydroxy-estra-1,3,5(10)-triene-2-yl)Methylene)-N-methylhydrazine-1-carbothioamide]
IC50 [2, 12]: > 20 µM | IC50 ([3]; Homo sapiens): 15.8 ± 1.03 µM | IC50 ([4]; Homo sapiens, MCF7): > 20 µM | IC50 ([5]; Homo sapiens): > 20 µM | pKa [CuL]+ [9]: 4.08 | logβ [CuLH−1] [9]: 9.59 ± 0.03 | logβ [CuL]+ [9]: 13.68 ± 0.03 | pCu5.0 [9]: 7.6 | pCu6.0 [9]: 9.1 | pCu7.4 [9]: 11.8 | pKa [10]: 9.28 ± 0.03 | kobs [11]: 0.22 ± 0.02 min⁻¹ | TEAC (Trolox equivalent antioxidant capacity) [6]: 0.8 | % Scavenging Effect [6]: 31.0% | IC50 [6]: 15.4 µM | MIC [7, 13]: > 100 µM | MIC [8, 14]: > 100 µM

Now from value to compound, other results behind:

IC50 [6]: 12 µM
Compound: Cc1c(C)c2c(c(C)c1O)CCC(C)(C(=O)O)O2 (centres unmarked) [Trolox, 6-hydroxy-2,5,7,8-tetramethylchroman-2-carboxylic acid, reference compound]
TEAC (Trolox equivalent antioxidant capacity) [6]: 1 | % Scavenging Effect [6]: 100%

IC50 [6]: > 50 µM
Compound: C[C@]12CC[C@@H]3c4ccc(O)cc4CC[C@H]3[C@@H]1CC[C@@H]2O [estradiol]
% Scavenging Effect [6]: 0.5%
